Results on 9 compounds are retold here after patent US6110956A, “N-aryloxyethylamine derivatives for the treatment of depression” (American Home Products Corp., priority 1999, dated 2000).

In assay [1] the target is T1, human 5-HT1A receptor (Homo sapiens, UniProt P08908).
T1 construct: expressed in transfected cells
T1 sequence (P08908 1-422): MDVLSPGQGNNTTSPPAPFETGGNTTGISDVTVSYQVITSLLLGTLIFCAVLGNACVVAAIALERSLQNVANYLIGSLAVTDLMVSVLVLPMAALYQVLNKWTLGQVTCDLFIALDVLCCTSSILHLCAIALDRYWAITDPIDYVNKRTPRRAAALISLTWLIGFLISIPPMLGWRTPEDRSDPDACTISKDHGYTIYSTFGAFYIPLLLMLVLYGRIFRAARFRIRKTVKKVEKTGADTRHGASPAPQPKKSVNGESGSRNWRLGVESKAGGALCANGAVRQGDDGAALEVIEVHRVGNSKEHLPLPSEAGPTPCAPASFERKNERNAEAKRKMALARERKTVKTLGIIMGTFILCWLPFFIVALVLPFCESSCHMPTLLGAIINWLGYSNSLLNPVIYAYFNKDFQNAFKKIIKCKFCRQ
Nature of the assay: 5-HT1A receptor binding ([3H]8-OH-DPAT, 5-HT1A.CHO cell membranes). Conditions: for inhibition at 0.01 µM / inhibition at 1 µM: 0.5 h; for inhibition at 0.01 µM: read-out: 5-HT1A % @10 nM; for inhibition at 1 µM: read-out: 5-HT1A % @1000 nM. On the procedure:
(§1) The PCR cloning of the human 5-HT1A receptor subtype from a human genomic library has been described previously Chanda et al., Mol. Pharmacol., 43:516 (1993). A stable Chinese hamster ovary cell line expressing the human 5-HT1A receptor subtype (5-HT1A.CHO cells) was employed throughout this study. Cells were maintained in DMEM supplemented with 10% foetal calf serum, non-essential amino acids and penicillin/streptomycin.
Cells were grown to 95-100% confluency as a monolayer before membranes were harvested for binding studies. Cells were gently scraped from the culture plates, transferred to centrifuge tubes, and washed twice by centrifugation (2000 rpm for 10 min., 4° C.) in buffer (50 mM Tris; pH 7.5). The resulting pellets were aliquoted and placed at -80° C. On the day of assay, the cells were thawed on ice, and resuspended in buffer. Studies were conducted using [^3 H]8-OH-DPAT as the radioligand. The binding assay was performed in 96 well microtiter plates in a final total volume of 250 μL of buffer. Competition experiments were performed by using 7 concentrations of unlabelled drug and a final ligand concentration of 1.5 nM . Non-specific binding was determined in the presence of 10 μM 5HT. Saturation analysis was conducted by using [^3 H]8-OH-DPAT at concentrations ranging from 0.3-30 nM. Following a 30 minute incubation at room temperature, the reaction was terminated by the addition of ice cold buffer and rapid filtration using a M-96 Brandel Cell Harvester (Gaithersburg, Md.) through a GF/B filter presoaked for 30 minutes in 0.5% polyethyleneimine.

Assay [2] deals with T2, serotonin transporter (Rattus norvegicus, UniProt P31652).
T2 construct: frontal cortical membranes prepared from male Sprague-Dawley rats; from tissue; host or cells: frontal cortical membranes of male Sprague-Dawley rats
Kind of assay: serotonin transporter (ST) affinity, 3H-paroxetine binding in frontal cortical membranes. On the set-up: species or system male Sprague-Dawley rats. On the procedure:
Briefly, frontal cortical membranes prepared from male Sprague-Dawley rats were incubated with ^3 H-paroxetine (0.1 nM) for 60 min at 25° C. All tubes also contained either vehicle, test compound (one to eight concentrations), or a saturating concentration of fluoxetine (10 μM) to define […]. All reactions are terminated by the addition of ice cold Tris buffer followed by rapid filtration using a Tom Tech filtration device to separate bound from free ^3 H-paroxetine.

Assay [3] has as its target T3, 5-HT1A cloned receptor (Homo sapiens, UniProt P08908).
T3 construct: expressed in transfected cells
T3 sequence (P08908 1-422): T1 sequence (P08908 1-422)
Nature of the assay: [35S]-GTPγS binding assay, 5-HT1A cloned receptor membranes. Type of assay: biochemical. Particulars: maximum agonist response defined by excess 8-OH-DPAT.
Source text: as §1
The [^35 S]-GTPγS binding assay was similar to that used by Lazareno and Birdsall, Br. J. Pharmacol. 109:1120 (1993). Briefly, 5-HT1A cloned receptor membrane fragments (as used for 5-HT1A receptor binding assays) were stored at -70° C. until needed. When needed, membranes were rapidly thawed, centrifuged at 40,000×g for 10 minutes and resuspended at 4° C. for 10 minutes in assay buffer ([…], 3 mM MgCl2, 100 mM NaCl, 1 mM EDTA, 10 uM GDP, […], pH 8.0). These membranes were then incubated for 30 min at 30° C. with [^35 S]GTPgS (1 nM) in the presence of vehicle, test compound (one to eight concentrations), or excess 8-OH-DPAT to define maximum agonist response. All reactions are terminated by the addition of ice cold Tris buffer followed by rapid filtration using a Tom Tech® filtration device to separate bound from free [^35 S]GTPgS. […] Bound radioactivity was counted and analyzed as above.
On the technique in general: GTPγS is a poorly hydrolysed GTP analogue; its binding reports G protein activation.

Where two headings read alike, the source gives them in different places.

T2 sequence (P31652 whole entry): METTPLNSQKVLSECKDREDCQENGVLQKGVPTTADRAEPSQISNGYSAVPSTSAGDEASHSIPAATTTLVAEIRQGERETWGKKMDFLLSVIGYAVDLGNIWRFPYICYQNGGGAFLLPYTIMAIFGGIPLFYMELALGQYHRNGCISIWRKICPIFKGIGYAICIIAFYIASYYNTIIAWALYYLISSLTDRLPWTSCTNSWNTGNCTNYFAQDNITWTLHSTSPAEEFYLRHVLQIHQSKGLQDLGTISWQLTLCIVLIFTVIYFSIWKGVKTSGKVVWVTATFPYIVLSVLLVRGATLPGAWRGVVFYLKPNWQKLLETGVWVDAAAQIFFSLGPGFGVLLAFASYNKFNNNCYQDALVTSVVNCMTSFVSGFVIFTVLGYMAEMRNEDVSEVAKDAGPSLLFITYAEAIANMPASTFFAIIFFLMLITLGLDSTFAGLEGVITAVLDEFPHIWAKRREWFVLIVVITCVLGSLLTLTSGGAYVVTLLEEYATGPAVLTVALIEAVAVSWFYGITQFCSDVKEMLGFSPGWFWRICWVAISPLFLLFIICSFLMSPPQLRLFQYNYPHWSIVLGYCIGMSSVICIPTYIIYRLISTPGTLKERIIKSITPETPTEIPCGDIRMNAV

Regarding `COc1ccccc1OCCNCC1CCC(c2c[nH]c3ccc(C#N)cc23)CC1` (centres unmarked) [Example 10b, 3-(4-{[2-(Methoxy-phenoxy)-ethylamino]-methyl}-cyclohexyl)-1H-indole-5-carbonitrile], the inhibition at 0.01 µM in assay [1] was 7%. As usually defined, the Ki is the equilibrium dissociation constant of an inhibitor or competing ligand from its target. In the case of `OC1(CNCCOc2cccc3[nH]ccc23)CCC(c2c[nH]c3ccc(F)cc23)CC1` (centres unmarked) [Example 13, (1,4)-4-(5-Fluoro-1H-indol-3-yl)-1-{[2-(1H-indol-4-yloxy)-ethylamino]-methyl}-cyclohexanol], the inhibitory constant (Ki) in assay [1] ([3H]8-OH-DPAT 1.5 nM, 30 minutes, room temperature, read-out: 5-HT1A (Ki)) came to 257 nM. As to `COc1cc(F)ccc1OCCN[C@H]1CC[C@@H](c2c[nH]c3ccc(F)cc32)CC1` [Example 9a, [(1,4-cis)-4-(5-Fluoro-1H-indol-3-yl)-cyclohexyl]-[2-(4-fluoro-2-methoxy-phenoxy)-ethyl]-amine], in assay [1], the inhibition at 0.01 µM is 16%. In the case of `COc1cc(F)c(F)cc1OCCN[C@H]1CC[C@@H](c2c[nH]c3ccc(F)cc32)CC1` [Example 11a, (1,4-cis)-[2-(4,5-Difluoro-2-methoxy-phenoxy)-ethyl]-[4-(5-fluoro-1H-indol-3-yl)-cyclohexyl]-amine], in assay [1], the inhibition at 0.01 µM was determined as 0%. Regarding `N#Cc1ccc2[nH]cc([C@H]3CC[C@@H](NCCOc4cc(F)cc5c4OCC5)CC3)c2c1` [Example 6a], the inhibition at 1 µM in assay [1] amounted to 49%. On the same count and under the same terms, as for `Fc1cc2c(c(OCCN[C@H]3CC[C@@H](c4c[nH]c5ccc(F)cc54)CC3)c1)OCCC2` [Example 5a, [2-(6-Fluoro-chroman-8-yloxy)-ethyl]-[(1,4-cis)-4-(5-fluoro-1H-indol-3-yl)-cyclohexyl]-amine], the figure is 49%. The term Emax denotes the greatest response seen or fitted, relative to the assay's reference. As for `COc1ccccc1OCCNC[C@H]1CC[C@H](c2c[nH]c3ccc(F)cc32)CC1` [Example 10a, [(1,4-trans)-4-(5-Fluoro-1H-indol-3-yl)-cyclohexylmethyl]-[2-(2-methoxy-phenoxy)-ethyl]-amine], the results for the Ki in assay [1] and in assay [2] were 26.8 nM and 7.33 nM, respectively. In assay [3], the Emax was found to be 60%. For `COc1cc(S(C)(=O)=O)c(F)cc1OCCN[C@H]1CC[C@H](c2c[nH]c3ccc(F)cc32)CC1` [Example 12, [(1,4-trans)-4-(5-Fluoro-1H-indol-3-yl)-cyclohexyl]-[2-(5-fluoro-4-methanesulfonyl-2-methoxy-phenoxy)-ethyl]-amine], in assay [1], the inhibition at 0.01 µM worked out at 0%. For `Cn1cc([C@H]2CC[C@@H](NCCOc3cc(F)cc4c3OCCC4)CC2)c2cc(C#N)ccc21` [Example 5c, 3-{(1,4-cis)-4-[2-(6-Fluoro-chroman-8-yloxy)-ethylamino]-cyclohexyl}-1-methyl-1H-indole-5-carbonitrile], the inhibition at 1 µM in assay [1] is 47%.
